Columns and labels:
B-RAF G466V = target: T1, B-RAF G466V (Homo sapiens, UniProt P15056, G466V); assay: Target protein degradation, assay D: T-Rex 293 cells, HA-BRAF_G466V, 384 well format; assay type: cell-based; conditions: T-Rex 293 HA-BRAF_G466V cells, 24 hours, Examples 83-269; for DC50: Assay D; for Dmax: T-REx-293, Assay D
T1 construct: expressed in transfected cells; host or cells: T-Rex 293 cells (Invitrogen #R71007)
Summary of the method: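 T-Rex 293 cells stably expressing doxycycline-induced (1 ng/mL) HA-BRAF G466V treated 24 h at 37 °C with PROTACs, 11-point 1:3 dilution, 300 nM to 5 pM final, 0.5% DMSO. Fixed cells immunostained for HA and imaged by high-content microscopy; DC50 and Dmax (% of control) derived, toxicity from nuclei counts versus DMSO.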

B-RAF V600E = target: T2, B-RAF V600E (Homo sapiens, UniProt P15056, V600E); assay: Target protein degradation, assay C: T-Rex 293 cells, HA-BRAF_V600E, 384 well format; assay type: cell-based; conditions: T-Rex 293 HA-BRAF_V600E cells, 24 hours, Examples 83-269; for DC50: Assay C; for Dmax: T-REx-293, Assay C
T2 construct: expressed in transfected cells; host or cells: T-Rex 293 cells (Invitrogen #R71007)
Summary of the method: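 T-Rex 293 cells stably expressing doxycycline-induced (1 ng/mL) HA-BRAF V600E were treated 24 h at 37 °C with compound (300 nM–5 pM, 11 points, 0.5% DMSO). HA immunofluorescence was quantified by high-content imaging to give DC50 and Dmax (% of control); nuclei counts versus DMSO gauged toxicity.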

T2 sequence (P15056 whole entry V600E): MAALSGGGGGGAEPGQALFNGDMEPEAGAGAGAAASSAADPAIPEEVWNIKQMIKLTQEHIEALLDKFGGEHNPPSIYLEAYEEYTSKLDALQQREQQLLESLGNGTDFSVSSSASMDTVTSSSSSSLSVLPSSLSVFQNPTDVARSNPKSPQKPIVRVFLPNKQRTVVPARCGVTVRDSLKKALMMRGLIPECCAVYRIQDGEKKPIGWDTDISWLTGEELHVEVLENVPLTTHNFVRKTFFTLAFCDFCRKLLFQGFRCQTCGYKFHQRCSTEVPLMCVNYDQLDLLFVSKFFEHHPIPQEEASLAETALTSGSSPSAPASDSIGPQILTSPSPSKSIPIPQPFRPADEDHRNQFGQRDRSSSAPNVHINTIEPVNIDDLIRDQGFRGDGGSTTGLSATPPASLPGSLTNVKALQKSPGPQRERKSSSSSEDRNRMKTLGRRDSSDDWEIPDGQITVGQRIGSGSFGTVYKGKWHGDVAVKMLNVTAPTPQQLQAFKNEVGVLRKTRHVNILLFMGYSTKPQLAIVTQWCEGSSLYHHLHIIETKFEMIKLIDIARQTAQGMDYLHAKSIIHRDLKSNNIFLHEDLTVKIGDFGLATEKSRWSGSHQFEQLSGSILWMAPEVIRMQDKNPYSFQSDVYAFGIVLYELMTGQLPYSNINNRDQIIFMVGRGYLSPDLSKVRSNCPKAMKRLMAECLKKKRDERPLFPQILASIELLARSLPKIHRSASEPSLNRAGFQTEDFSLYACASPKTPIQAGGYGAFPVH
T1 sequence (P15056 whole entry G466V): as the sequence (P15056 whole entry V600E) above, with G466V, E600V counted along it

SMILES	DC50 (B-RAF G466V)	Dmax (B-RAF G466V)	DC50 (B-RAF V600E)	Dmax (B-RAF V600E)
N#Cc1c(NS(=O)(=O)N2CC[C@@H](F)C2)ccc(F)c1Oc1ccc2ncn(-c3cccc(N4CCN(CC5CCN(c6ccc7c(c6)CN([C@H]6CCC(=O)NC6=O)C7=O)CC5)CC4)c3)c(=O)c2c1 [Example 239, (3R)-N-(2-cyano-3-{[3-(3-{4-[(1-{2-[(3S)-2,6-dioxopiperidin-3-yl]-1-oxo-2,3-dihydro-1H-isoindol-5-yl}piperidin-4-yl)methyl]piperazin-1-yl}phenyl)-4-oxo-3,4-dihydroquinazolin-6-yl]oxy}-4-fluorophenyl)-3-fluoropyrrolidine-1-sulfonamide]	1 to 10 nM	≥ 70%	50 to 500 nM	≥ 70%
N#Cc1c(NS(=O)(=O)N2CC[C@@H](F)C2)ccc(F)c1Oc1ccc2ncn(-c3cccc(C4CCN(CC5CCN(c6ccc7c(c6)CN([C@H]6CCC(=O)NC6=O)C7=O)CC5)CC4)c3)c(=O)c2c1 [Example 240, (3R)-N-(2-cyano-3-{[3-(3-{1-[(1-{2-[(3S)-2,6-dioxopiperidin-3-yl]-1-oxo-2,3-dihydro-1H-isoindol-5-yl}piperidin-4-yl)methyl]piperidin-4-yl}phenyl)-4-oxo-3,4-dihydroquinazolin-6-yl]oxy}-4-fluorophenyl)-3-fluoropyrrolidine-1-sulfonamide]	1 to 10 nM	≥ 70%	5 to 50 nM	≥ 70%
N#Cc1c(NS(=O)(=O)N2CC[C@@H](F)C2)ccc(F)c1Oc1ccc2ncn(-c3ccc(N4CCN(CCN5CCN(c6ccc(C7CCC(=O)NC7=O)cc6F)CC5)CC4)cc3)c(=O)c2c1 (stereo partly drawn) [Example 244, (3R)-N-{2-cyano-3-[(3-(4-[4-(2-{4-[4-(2,6-dioxopiperidin-3-yl)-2-fluorophenyl]piperazin-1-yl}ethyl)piperazin-1-yl]phenyl}-4-oxo-3,4-dihydroquinazolin-6-yl)oxy]-4-fluorophenyl}-3-fluoropyrrolidine-1-sulfonamide]	1 to 10 nM	≤ 35%	50 to 500 nM	35 to 70%
Cn1c(=O)n(C2CCC(=O)NC2=O)c2cccc(N3CCN(CCN4CCN(c5ccc(-n6cnc7ccc(Oc8c(F)ccc(NS(=O)(=O)N9CC[C@@H](F)C9)c8C#N)cc7c6=O)cc5)CC4)CC3)c21 (stereo partly drawn) [Example 245, (3R)-N-{2-cyano-3-[(3-{4-[4-(2-{4-[1-(2,6-dioxopiperidin-3-yl)-3-methyl-2-oxo-2,3-dihydro-1H-1,3-benzodiazol-4-yl]piperazin-1-yl}ethyl)piperazin-1-yl]phenyl}-4-oxo-3,4-dihydroquinazolin-6-yl)oxy]-4-fluorophenyl}-3-fluoropyrrolidine-1-sulfonamide]	1 to 10 nM	35 to 70%	50 to 500 nM	≥ 70%
Cn1c(=O)n(C2CCC(=O)NC2=O)c2cccc(N3CC4(CC(CN5CCN(c6ccc(-n7cnc8ccc(Oc9c(F)ccc(NS(=O)(=O)N%10CC[C@@H](F)C%10)c9C#N)cc8c7=O)cc6)CC5)C4)C3)c21 (stereo partly drawn) [Example 246, (3R)-N-{2-cyano-3-[(3-{4-[4-({2-[1-(2,6-dioxopiperidin-3-yl)-3-methyl-2-oxo-2,3-dihydro-1H-1,3-benzodiazol-4-yl]-2-azaspiro[3.3]heptan-6-yl}methyl)piperazin-1-yl]phenyl}-4-oxo-3,4-dihydroquinazolin-6-yl)oxy]-4-fluorophenyl}-3-fluoropyrrolidine-1-sulfonamide]	1 to 10 nM	35 to 70%	50 to 500 nM	35 to 70%
N#Cc1c(NS(=O)(=O)N2CC[C@@H](F)C2)ccc(F)c1Oc1ccc2ncn(-c3ccn(C4CCN(CC5CCN(c6ccc7c(c6)CN([C@H]6CCC(=O)NC6=O)C7=O)CC5)CC4)n3)c(=O)c2c1 [Example 248, (3R)—N-(2-cyano-3-{[3-(1-{1-[(1-{2-[(3S)-2,6-dioxopiperidin-3-yl]-1-oxo-2,3-dihydro-1H-isoindol-5-yl}piperidin-4-yl)methyl]piperidin-4-yl}-1H-pyrazol-3-yl)-4-oxo-3,4-dihydroquinazolin-6-yl]oxy}-4-fluorophenyl)-3-fluoropyrrolidine-1-sulfonamide]	1 to 10 nM	≥ 70%	50 to 500 nM	≥ 70%
N#Cc1c(NS(=O)(=O)N2CC[C@@H](F)C2)ccc(F)c1Oc1ccc2ncn(-c3ccc(C4CCN([C@H]5C[C@H](OC6CCN(c7ccc8c(c7)CN(C7CCC(=O)NC7=O)C8=O)CC6)C5)CC4)cc3)c(=O)c2c1 (stereo partly drawn) [Example 249, (3R)—N-(2-cyano-4-fluoro-3-{[4-oxo-3-(4-{1-[(1r,3r)-3-({1-[2-(2,6-dioxopiperidin-3-yl)-1-oxo-2,3-dihydro-1H-isoindol-5-yl]piperidin-4-yl}oxy)cyclobutyl]piperidin-4-yl}phenyl)-3,4-dihydroquinazolin-6-yl]oxy}phenyl)-3-fluoropyrrolidine-1-sulfonamide]	1 to 10 nM	35 to 70%	> 500 nM	–

Results, then the molecule that gave them:

DC50 (B-RAF G466V)	Dmax (B-RAF G466V)	DC50 (B-RAF V600E)	Dmax (B-RAF V600E)	SMILES
10 to 30 nM	≥ 70%	50 to 500 nM	35 to 70%	COc1cc(N2CC(CN3CCN(c4ccc(-n5cnc6ccc(Oc7c(F)ccc(NS(=O)(=O)N8CC[C@@H](F)C8)c7C#N)cc6c5=O)cc4)CC3)C2)cc2c1C(=O)N([C@H]1CCC(=O)NC1=O)C2 [Example 236, (3R)-N-(2-cyano-3-{[3-(4-{4-[(1-{2-[(3S)-2,6-dioxopiperidin-3-yl]-7-methoxy-1-oxo-2,3-dihydro-1H-isoindol-5-yl}azetidin-3-yl)methyl]piperazin-1-yl}phenyl)-4-oxo-3,4-dihydroquinazolin-6-yl]oxy}-4-fluorophenyl)-3-fluoropyrrolidine-1-sulfonamide]
1 to 10 nM	≥ 70%	50 to 500 nM	35 to 70%	COc1cc(N2CC(CN3CCN(c4ccc(-n5cnc6ccc(Oc7c(F)ccc(NS(=O)(=O)N8CC[C@@H](F)C8)c7C#N)cc6c5=O)cc4)CC3)C2)cc2c1C(=O)N([C@@H]1CCC(=O)NC1=O)C2 [Example 237, (3R)-N-(2-cyano-3-{[3-(4-{4-[(1-{2-[(3R)-2,6-dioxopiperidin-3-yl]-7-methoxy-1-oxo-2,3-dihydro-1H-isoindol-5-yl}azetidin-3-yl)methyl]piperazin-1-yl}phenyl)-4-oxo-3,4-dihydroquinazolin-6-yl]oxy}-4-fluorophenyl)-3-fluoropyrrolidine-1-sulfonamide]
1 to 10 nM	≥ 70%	50 to 500 nM	≥ 70%	N#Cc1c(NS(=O)(=O)N2CC[C@@H](F)C2)ccc(F)c1Oc1ccc2ncn(-c3ccc(N4CCC(CN5CC6(CCN(c7ccc8c(c7)CN([C@H]7CCC(=O)NC7=O)C8=O)CC6)C5)CC4)cc3)c(=O)c2c1 [Example 238, (3R)-N-(2-cyano-3-{[3-(4-{4-[(7-{2-[(3S)-2,6-dioxopiperidin-3-yl]-1-oxo-2,3-dihydro-1H-isoindol-5-yl}-2,7-diazaspiro[3.5]nonan-2-yl)methyl]piperidin-1-yl}phenyl)-4-oxo-3,4-dihydroquinazolin-6-yl]oxy}-4-fluorophenyl)-3-fluoropyrrolidine-1-sulfonamide]
10 to 30 nM	35 to 70%	> 500 nM	–	N#Cc1c(NS(=O)(=O)N2CC[C@@H](F)C2)ccc(F)c1Oc1ccc2ncn(-c3ccc(N4CCN(C(=O)C5CN(c6ccc7c(c6)CN([C@H]6CCC(=O)NC6=O)C7=O)C5)CC4)cc3)c(=O)c2c1 [Example 243, (3R)-N-{2-cyano-3-[(3-{4-[4-(1-{2-[(3S)-2,6-dioxopiperidin-3-yl]-1-oxo-2,3-dihydro-1H-isoindol-5-yl}azetidine-3-carbonyl)piperazin-1-yl]phenyl}-4-oxo-3,4-dihydroquinazolin-6-yl)oxy]-4-fluorophenyl}-3-fluoropyrrolidine-1-sulfonamide]
1 to 10 nM	35 to 70%	50 to 500 nM	≥ 70%	N#Cc1c(NS(=O)(=O)N2CC[C@@H](F)C2)ccc(F)c1Oc1ccc2ncn(-c3ccc(N4CCN(CC5CN(c6cc(F)c7c(c6)CN(C6CCC(=O)NC6=O)C7=O)C5)CC4)cc3)c(=O)c2c1 (stereo partly drawn) [Example 247, (3R)—N-{2-cyano-3-[(3-{4-[4-({1-[2-(2,6-dioxopiperidin-3-yl)-7-fluoro-1-oxo-2,3-dihydro-1H-isoindol-5-yl]azetidin-3-yl}methyl)piperazin-1-yl]phenyl}-4-oxo-3,4-dihydroquinazolin-6-yl)oxy]-4-fluorophenyl}-3-fluoropyrrolidine-1-sulfonamide]
1 to 10 nM	35 to 70%	50 to 500 nM	35 to 70%	N#Cc1c(NS(=O)(=O)N2CC[C@@H](F)C2)ccc(F)c1Oc1ccc2ncn(-c3ccc(N4CCC5(CC4)CC(OC4CCN(c6ccc7c(c6)CN([C@H]6CCC(=O)NC6=O)C7=O)CC4)C5)cc3)c(=O)c2c1 [Example 250, (3R)—N-(2-cyano-3-{[3-(4-{2-[(1-{2-[(3S)-2,6-dioxopiperidin-3-yl]-1-oxo-2,3-dihydro-1H-isoindol-5-yl}piperidin-4-yl)oxy]-7-azaspiro[3.5]nonan-7-yl}phenyl)-4-oxo-3,4-dihydroquinazolin-6-yl]oxy}-4-fluorophenyl)-3-fluoropyrrolidine-1-sulfonamide]

Source: US11957759B1, “Rapidly accelerated fibrosarcoma (RAF) degrading compounds and associated methods of use” (Arvinas Operations, Inc., priority 2022, dated 2024)
